In paper PMC2654718 (Biochemistry, 2009):

Legend:
[1] = system: serum vitamin D binding protein; conditions: cited from earlier work
[2] = mice; cited from earlier work
[3] = target: T1, VDR-LBD (Homo sapiens, UniProt P11473, DEL165-215); test: Isothermal titration calorimetry of SRC2-3 peptides with VDR-LBD; conditions: 25 °C, 20 mM HEPES pH 7.5, 150 mM NaCl; for n: ITC stoichiometry; for ΔH: ITC
T1 sequence (P11473 with tags, fused parts or gaps DEL165-215 limits assumed): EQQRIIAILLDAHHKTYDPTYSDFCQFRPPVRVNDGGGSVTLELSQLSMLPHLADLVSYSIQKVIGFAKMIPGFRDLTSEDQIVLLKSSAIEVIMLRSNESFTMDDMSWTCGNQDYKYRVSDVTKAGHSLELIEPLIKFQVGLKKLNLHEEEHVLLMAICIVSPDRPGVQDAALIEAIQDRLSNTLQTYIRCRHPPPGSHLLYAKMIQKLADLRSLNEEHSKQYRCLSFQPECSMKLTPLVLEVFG

[4] = target: T2, MBP-VDR-LBDmt (Homo sapiens, UniProt P11473, DEL165-215); test: Fluorescence polarization peptide binding assay; conditions: FP
T2 sequence (P11473 with tags, fused parts or gaps DEL165-215 limits assumed): T1 sequence (P11473 with tags, fused parts or gaps DEL165-215 limits assumed)

Binding affinity towards VDR (in words) ([4]; in the presence of ligand) | Binding in the absence of ligand (in words) ([4]; no ligand, no plateau at higher protein concentrations) | Structure (SMILES) | Binding to serum vitamin D binding protein (in words) [1] | Influence on calcium serum levels (in words) [2] | n [3] | ΔH [3] [kcal/mol]
 |  | CCC(CC)(c1ccc(OCC(O)CO)c(C)c1)c1ccc(OCC(O)C(C)(C)C)c(C)c1 (centres unmarked) [LG190178] | does not bind | no influence |  | 
High affinity binding | weak or no binding | CC(C)C[C@H](NC(=O)[C@H](C)NC(=O)[C@H](CC(N)=O)NC(=O)[C@H](CCC(=O)O)NC(=O)[C@H](CCCCN)NC(=O)[C@H](CCCCN)NC(=O)[C@H](CCCCN)NC(=O)[C@@H](N)CS)C(=O)N[C@@H](CC(C)C)C(=O)N[C@@H](CCCNC(=N)N)C(=O)N[C@@H](Cc1ccc(O)cc1)C(=O)N[C@@H](CC(C)C)C(=O)N[C@@H](CC(C)C)C(=O)N[C@@H](CC(=O)O)C(=O)N[C@@H](CCCCN)C(=O)N[C@@H](CC(=O)O)C(=O)N[C@@H](CC(=O)O)C(=O)N[C@H](C(=O)N[C@@H](CCCCN)C(=O)N[C@@H](CC(=O)O)C(=O)O)[C@@H](C)O [SRC2-3] |  |  | 1.02±0.02 | -6.7 ± 0.3
 |  | CC(C)C[C@H](NC(=O)[C@H](C)NC(=O)[C@H](CC(N)=O)NC(=O)[C@H](CCC(=O)O)NC(=O)[C@H](CCCCN)NC(=O)[C@H](CCCCN)NC(=O)[C@H](CCCCN)NC(=O)[C@@H](N)CSC1CC(=O)N(CCNS(=O)(=O)c2ccc(C3=c4cc5c6c(c4Oc4c3cc3c7c4CCCN7CCC3)CCC[N+]=6CCC5)c(S(=O)(=O)[O-])c2)C1=O)C(=O)N[C@@H](CC(C)C)C(=O)N[C@@H](CCCNC(=N)N)C(=O)N[C@@H](Cc1ccc(O)cc1)C(=O)N[C@@H](CC(C)C)C(=O)N[C@@H](CC(C)C)C(=O)N[C@@H](CC(=O)O)C(=O)N[C@@H](CCCCN)C(=O)N[C@@H](CC(=O)O)C(=O)N[C@@H](CC(=O)O)C(=O)N[C@H](C(=O)N[C@@H](CCCCN)C(=O)N[C@@H](CC(=O)O)C(=O)O)[C@@H](C)O (some centres unmarked) [SRC2-3_Texas-Red] |  |  | 0.93±0.04 | -2.2 ± 0.12
